# Measurements as given in article PMC8861095, “Neurotoxicological profile of the hallucinogenic compound 25I-NBOMe” (Scientific Reports, 2022).
# Legend:
# [1] = tested on: primary mice cardiomyocytes; conditions: in vitro; cited from earlier work
# [2] = tested on: NeuN-, S100β- and IBA-1-immunopositive cells; test: Immunohistochemistry with stereological count of cortical and hippocampal cells; type: in vivo, rat; conditions: chronic 0.3 mg/kg × 7 sc, 72 h, vs control
# Experimental: Animals received single or multiple (once per day for seven days) subcutaneous injections of 25I-NBOMe dissolved in 0.9% NaCl at a dose of 0.3 mg/kg/2 ml. The control group was treated with 0.9% NaCl solution in the same way. All procedures were performed 72 h after the last injection. The time point of 72 h was chosen due to the possible generation of neurotoxicity via oxidative stress caused by reactive oxygen species (ROS). Exceptionally, for initial 25I-NBOMe brain distribution studies, rats received the drug in the dose of 1 and 10 mg/kg and were sacrificed 15 min after the drug administration. The rat blood plasma and brain tissues were collected immediately after rats’ decapitation. LSD (0.05 mg/kg, ip) was given daily for 7 days in a volume of 1 ml/kg, while MDMA 5 mg/kg, ip was injected in a volume of 2 ml/kg every second day (overall 4 injections).
# Animals were deeply anesthetized and transcardially perfused with 0.9% NaCl followed by 4% paraformaldehyde (PFA) in 0.1 M phosphate-buffered saline (PBS). After 24 h of fixation in 4% PFA (4 °C), 300 µm sections were cut through the frontal cortex (FC) and medial prefrontal cortex (mPFC) as well as hippocampus using a VT-1000S vibratome (Leica Microsystems, Heidelberg, Germany). Free-floating sections were processed for single staining of neurons with neuronal-specific nuclear protein (NeuN), glia with specific calcium-binding protein B (S100β), and microglia cells with ionized calcium-binding adaptor molecule 1 (IBA-1) antibodies. Subsequently, brain sections were rinsed and incubated for 1 h in a blocking buffer: 0.01 M PBS containing 0.3% Triton X-100 and 5% average horse, goat, or rabbit serum. After that, the sections were incubated for 48 h at 4 °C with one of the following primary antibodies: monoclonal anti-NeuN (1:1000), monoclonal anti-S100β-subunit (1:1000) or polyclonal IBA-1 (1:500) diluted in 0.01 M PBS containing 0.3% Triton X-100 (PBST) and 3% average horse or goat serum. Primary antibody binding was visualized with biotinylated secondary antibodies, the Avidin/Biotin Complex (Vectastain Elite ABC Kit) according to recommended by manufacturer concentration and 3,3′-diaminobenzidine tetrahydrochloride (DAB, 10 mg/50 ml and 0.025% H2O2) solution to give a brown color to NeuN, S100β and IBA-1-immunoreactive cells. For data presentation, digital images were captured using a digital camera CX 9000 (Bioscience Microbrightfield, Inc., Germany) attached to a Leica microscope (CTR 6000) with 2.5 and 5.0 dry or 63 × and 100 × oil objectives (Leica) that was controlled by Stereo Investigator software (v.8.10.2, 1995–2007 Bioscience Microbrightfield, Inc., Germany). The final photomicrographs were composed using the Adobe Photoshop program. The numbers of NeuN-, S100β- and IBA-1-immunopositive cells in the analyzed brain regions were estimated using unbiased stereological methods[35],[36]. Briefly, every sixth section from the systematic random sampling along the rostrocaudal axis was analyzed with a 63 ×/1.4–0.7 lens using the Stereo Investigator stereology system software. The cells appearing in the upper focal plane were omitted to prevent the counting of cell caps (− 5 μm of the topmost surface of the section). Immunopositive cells were marked when they were within the optical dissectors, which comprised a focal plane of 1600 μm^2 × 15 μm. The total numbers of NeuN, S100β- and IBA-1-immunopositive cells in the FC, mPFC, and hippocampus were automatically calculated by the Stereo Investigator software. In addition, the volume of the cortical regions and hippocampus was calculated using the Cavalieri Estimator option of the Stereo Investigator software.
# [3] = medial prefrontal cortex (mPFC)
compound,measurement,setting,value
"COc1cc(CCNCc2ccccc2OC)c(OC)cc1I [25I-NBOMe, 4-Iodo-2,5-dimethoxy-N-(2-methoxybenzyl)phenethylamine]",Cell viability,[1],decreased the viability
same,Number of IBA-1-immunopositive cells (microglia),[2]; frontal cortex (FC),significantly decreased
same,Number of NeuN cells (neurons),[2]; frontal cortex (FC),did not notice any significant change
same,Number of S100β-immunopositive cells (astrocytes),[2]; frontal cortex (FC),significantly decreased
same,Number of neuronal and glial cells,"[2]; hippocampal regions CA1, CA3/CA2 and dentate gyrus",did not show any changes
same,Number of NeuN cells (neurons),[2]; [3],did not notice any significant change
same,Number of S100β-immunopositive cells (astrocytes),[2]; [3],significant decrease
